According to patent publication US20040097594A1 (priority 1998, published 2004):
Where two headings read alike, the source gives them in different places.

Key:
[1] = system: HIV-1 (strain IIIB); experiment: microbe, parasite or virus in culture; assay type: cell-based; conditions: lower line of each compound's entry, read-out: IC50 (MT-4 cells)
[2] = biological target: HIV-1 protease (Human immunodeficiency virus type 1 group M subtype B, UniProt P04585); experiment: biochemical
[3] = Human immunodeficiency virus 1, 120 h, MT4 cells infected with HIV-1 strain IIIB, 5 days
[4] = HIV-1 protease, upper line of each compound's entry, read-out: Ki (enzyme)
[5] = Human immunodeficiency virus 1, IIIB, MT4, 120 h, […]

| SMILES | IC50 [1, 3] | Ki [2, 4] | Ki [2] | IC50 [1, 5] |
| --- | --- | --- | --- | --- |
| CCC(CC)ON(C[C@@H](O)[C@H](Cc1ccccc1)NC(=O)O[C@H]1CO[C@H]2OCC[C@H]21)S(=O)(=O)c1ccc(N)cc1 [Example 163, (3R,3aS,6aR)hexahydrofuro[2,3-b]furan-3-yl(1S,2R)-3-[[(4-aminophenyl)sulfonyl](1-ethylpropoxy)amino]-1-benzyl-2-hydroxypropylcarbamate] | ≤ 100 nM | < 1 nM | – | – |
| CC(C)ON(C[C@@H](O)[C@H](Cc1ccccc1)NC(=O)O[C@H]1CO[C@H]2OCC[C@H]21)S(=O)(=O)c1cccc(N(C)C(=O)OC(C)(C)C)c1 [Compound 126] | > 1000 nM | > 100 nM | – | – |
| COc1ccc(S(=O)(=O)N(C[C@@H](O)[C@H](Cc2ccccc2)NC(=O)c2ccccc2C)OC2CCCC2)cc1 [Compound 26, N^1-((1S,2R)-1-benzyl-3-(cyclopentyloxy)[(4-methoxyphenyl)sulfonyl]amino-2-hydroxypropyl)-2-methylbenzamide] | > 1000 nM | 1 to 10 nM | – | – |
| CON(C)C(=O)CNc1cccc(S(=O)(=O)N(CC(O)C(Cc2ccccc2)NC(=O)OC2COC3OCCC23)OC2CCCC2)c1 (mixture of isomers) [Compound 88, (3R,3aS,6aR)hexahydrofuro[2,3-b]furan-3-yl N-[(1S,2R)-1-benzyl-3-((cyclopentyloxy)[3-(2-[methoxy(methyl)amino]-2-oxoethylamino)phenyl]sulfonylamino)-2-hydroxypropyl]carbamate and (3S,3aR,6aS)hexahydrofuro[2,3-b]furan-3-yl N-[(1S,2R)-1-benzyl-3-((cyclopentyloxy)[3-(2[methoxy(methyl)amino]-2-oxoethylamino)phenyl]sulfonylamino)-2-hydroxypropyl]carbamate] | ≤ 100 nM | < 1 nM | – | – |
| CON(C)C(=O)COc1cccc(S(=O)(=O)N(C[C@@H](O)[C@H](Cc2ccccc2)NC(=O)OC2CO[C@H]3OCC[C@@H]23)OC2CCCC2)c1 (stereo partly drawn) [Compound 137, (3R,3aS,6aR)hexahydrofuro[2,3-b]furan-3-yl N-((1S,2R)-1-benzyl-3-(cyclopentyloxy)[(3-2-[methoxy(methyl)amino]-2-oxoethoxyphenyl)sulfonyl]amino-2-hydroxypropyl)carbamate] | ≤ 100 nM | < 1 nM | – | – |
| COc1ccc(S(=O)(=O)N(C[C@@H](O)[C@H](Cc2ccccc2)NC(=O)OC(C)(C)C)OCC(C)C)cc1 [Compound 22, tert-butyl N-((1S,2R)-1-benzyl-2-hydroxy-3-isobutoxy[(4-methoxyphenyl)sulfonyl]aminopropyl)carbamate] | > 1000 nM | – | 1 to 10 nM | – |
| Nc1ccc(S(=O)(=O)N(C[C@@H](O)[C@H](Cc2ccccc2)NC(=O)O[C@H]2CO[C@H]3OCC[C@H]32)OC2CCOCC2)cc1 [Compound 146, (3R,3aS,6aR)hexahydrofuro[2,3-b]furan-3-yl 3-[[(4-aminophenyl)sulfonyl](tetrahydro-2H-pyran-4-yloxy)amino]-1-benzyl-2-hydroxypropylcarbamate] | ≤ 100 nM | < 1 nM | – | – |
| COc1cccc(S(=O)(=O)N(C[C@@H](O)[C@H](Cc2ccccc2)NC(=O)O[C@H]2CO[C@H]3OCC[C@H]32)OC2CCCC2)c1 [Compound 123, (3R,3aS,6aR)hexahydrofuro[2,3-b]furan-3-yl N-[(1S,2R)-1-benzyl-3-((cyclopentyloxy)[(3-methoxyphenyl)sulfonyl]amino)-2-hydroxypropyl]carbamate] | ≤ 100 nM | < 1 nM | – | – |
| CC(C)(C)OC(=O)N[C@@H](Cc1ccccc1)[C@H](O)CN(OC1CCCC1)S(=O)(=O)c1ccc2[nH]c(NC(=O)N3CCOCC3)nc2c1 [Compound 8] | 500 to 1000 nM | < 1 nM | – | – |
| CC(C)(C)OC(=O)N[C@@H](Cc1ccccc1)[C@H](O)CN(OC1CCCC1)S(=O)(=O)c1ccc2nc(N)[nH]c2c1 [Compound 106, Tert-butyl N-(1S,2R)-1-benzyl-3-[(cyclopentyloxy)(2-amino-1H-benzimidazol-5-ylsulfonyl)amino]-2-hydroxypropylcarbamate] | 100 to 500 nM | < 1 nM | – | – |
| COc1ccc(S(=O)(=O)N(C[C@@H](O)[C@H](Cc2ccccc2)NC(=O)OC(C)(C)C)OC2CCOCC2)cc1 [Compound 18, tert-butyl N-(1S,2R)-1-benzyl-2-hydroxy-3-[[(4-methoxyphenyl)sulfonyl](tetrahydro-2H-pyran-4-yloxy)amino]propylcarbamate] | > 1000 nM | 1 to 10 nM | – | – |
| CNc1cccc(S(=O)(=O)N(C[C@@H](O)[C@H](Cc2ccccc2)NC(=O)O[C@H]2CO[C@H]3OCC[C@H]32)OC2CCCC2)c1 [Compound 45, (3R,3aS,6aR)hexahydrofuro[2,3-b]furan-3-yl N-(1S,2R)-3-[[(3-N-methylaminophenyl)sulfonyl](cyclopentyloxy)amino]-1-benzyl-2-hydroxypropylcarbamate] | ≤ 100 nM | < 1 nM | – | – |
| CCC(C)ON(C[C@@H](O)[C@H](Cc1ccccc1)NC(=O)OC(C)(C)C)S(=O)(=O)c1ccc(OC)cc1 (stereo partly drawn) [Compound 15, tert-butyl N-((1S,2R)-1-benzyl-3-sec-butoxy[(4-methoxyphenyl)sulfonyl]amino-2-hydroxypropyl)carbamate] | > 1000 nM | 1 to 10 nM | – | – |
| O=C(N[C@@H](Cc1ccccc1)[C@H](O)CC(OC1CCCC1)S(=O)(=O)c1ccc2nccnc2c1)OC1CCOC1 (stereo in doubt) [Compound 110, (3S)tetrahydro-3-furanyl N-[(1S,2R)-1-benzyl-4-(cyclopentyloxy)-2-hydroxy-4-(6-quinoxalinylsulfonyl)butyl]carbamate] | 100 to 500 nM | < 1 nM | – | – |
| O=C(N[C@@H](Cc1ccccc1)[C@H](O)CN(OC1CCCC1)S(=O)(=O)c1ccc2nccnc2c1)O[C@H]1CO[C@H]2OCC[C@H]21 [Compound 90] | ≤ 100 nM | < 1 nM | – | – |
| NC(=O)COc1cccc(S(=O)(=O)N(C[C@@H](O)[C@H](Cc2ccccc2)NC(=O)OC2CO[C@H]3OCC[C@@H]23)OC2CCCC2)c1 (stereo partly drawn) [Compound 136, (3R,3aS,6aR)hexahydrofuro[2,3-b]furan-3-yl N-(1S,2R)-3-[[3-(2-amino-2-oxoethoxy)phenyl]sulfonyl(cyclopentyloxy)amino]-1-benzyl-2-hydroxypropylcarbamate] | – | < 1 nM | – | ≤ 100 nM |
| O=C(N[C@@H](Cc1ccccc1)[C@H](O)CN(OC1CCCC1)S(=O)(=O)c1ccc2cn[nH]c2c1)O[C@H]1CCOC1 [Compound 58, (3S)Tetrahydro-3-furanyl N-(1S,2R)-1-benzyl-3-[(cyclopentyloxy)(1H-indazol-6-ylsulfonyl)amino]-2-hydroxypropylcarbamate] | 100 to 500 nM | < 1 nM | – | – |
| COC(=O)Nc1nc2cc(S(=O)(=O)N(C[C@@H](O)[C@H](Cc3ccccc3)NC(=O)OC3COCOC3)OC3CCCC3)ccc2[nH]1 [Compound 55, 1,3-Dioxan-5-yl N-(1S,2R)-1-benzyl-3-[(cyclopentyloxy)(2-{(methoxycarbonyl)amino]-1H-benzimidazol-5-ylsulfonyl)amino]-2-hydroxypropylcarbamate] | ≤ 100 nM | < 1 nM | – | – |
| CC(C)Oc1ccc(S(=O)(=O)N(C[C@@H](O)[C@H](Cc2ccccc2)NC(=O)OC2CO[C@H]3OCC[C@@H]23)OC2CCCC2)cc1 (stereo partly drawn) [Compound 141, (3R,3aS,6aR)hexahydrofuro[2,3-b]furan-3-yl N-((1S,2R)-1-benzyl-3-(cyclopentyloxy)[(4-isopropoxyphenyl)sulfonyl]amino-2-hydroxypropyl)carbamate] | – | < 1 nM | – | > 1000 nM |
